What was measured:
Assay type in all cases: in vivo
Echinochloa crus-galli [1] = experiment: Test Example 1: herbicidal effect test by treatment of rice paddy soil (immediately after seeding); details: 120 g/10a active ingredient, dry weight vs untreated area, 14 days after treatment
Method in brief: (§1)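 Pre-emergence paddy water application, 120 g a.i./10 ares, applied immediately post-seeding into ~3 cm flood; glasshouse; duplicate pots; dry weight at 14 d → % inhibition = (1 − treated/untreated) × 100.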

Scirpus juncoides [2] = experiment: as above; details: 120 g/10a active ingredient, dry weight vs untreated area, 14 days after treatment
Method in brief: as §1

[3] = tested on: broad leaf weeds (Lindernia pyxidaria and Monochoria vaginalis); experiment: as above; details: 120 g/10a active ingredient, dry weight vs untreated area, 14 days after treatment
Method in brief: as §1

Echinochloa crus-galli [4] = experiment: Test Example 2: herbicidal effect test by treatment during growing period in paddy rice cultivation (seven days after seeding); details: 120 g/10a active ingredient, assessed 14 days after treatment, dry weight vs untreated area
Method in brief: (§2)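 Greenhouse flooded-pot test, seeds sown in puddled paddy soil; emulsion applied into water 7 d after seeding, 120 g a.i./10 a. Dry-weight-based herbicidal rate at 14 d, n=2.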

Scirpus juncoides [5] = experiment: as above; details: 120 g/10a active ingredient, assessed 14 days after treatment, dry weight vs untreated area
Method in brief: as §2

[6] = tested on: broad leaf weeds (Lindernia pyxidaria and Monochoria vaginalis); experiment: as above; details: 120 g/10a active ingredient, assessed 14 days after treatment, dry weight vs untreated area
Method in brief: as §2

Amaranthus viridis = experiment: Test Example 3: herbicidal effect test by treatment of dry field farming soil (one day after seeding); details: 120 g/10a active ingredient, evaluated 14 days after treatment
Description: (§3) This test was conducted in a double system per one agent solution concentration area, and the herbicidal rates (%) were determined by the following equation (Math. 1) on 14 days after the treatment with the agents. Herbicidal Rate (%)={1-(Average Dry Weight (g) of Plant of Treated Area)/(Average Dry Weight (g) of Plant of Untreated Area)}×100 [Math. 1]
(§4) Herbicidal Effect Test by Treatment of Dry Field Farming Soil
(§5) Pots with a size of 36 cm^2 were filled with a dry field farming soil (alluvium). The soil of the top layer of 1 cm and seeds of weeds, namely southern crabgrass, Echinochloa crus-galli, Chenopodium album and Amaranthus viridis, 20 seeds each, were evenly mixed, and the top layer was gently pressed. Emulsions prepared using the compounds in Table 5 below according to Formulation Example 5 were diluted with water one day after seeding, and the water-diluted agent solutions were sprayed to the soil surfaces at a ratio of 100 liters per 10 ares. The converted amount of the applied active ingredient corresponded to 120 g per 10 ares. The herbicidal effects were evaluated by the same standard as that in Test Example 1 on 14 days after the treatment with the agents. […] The compound numbers in Table 5 are the same as those in Table 1 and Table 2 above.

Chenopodium album = experiment: as above; details: 120 g/10a active ingredient, evaluated 14 days after treatment
Description: as §3, §4, §5

Echinochloa crus-galli [7] = experiment: as above; details: 120 g/10a active ingredient, evaluated 14 days after treatment
Description: as §3, §4, §5

southern crabgrass = experiment: as above; details: 120 g/10a active ingredient, evaluated 14 days after treatment
Description: as §3, §4, §5

SMILES	Herbicidal rate (%) Echinochloa crus-galli (Echinochloa crus-galli [1]) [%]	Herbicidal rate (%) Scirpus juncoides (Scirpus juncoides [2]) [%]	Herbicidal rate (%) Lindernia pyxidaria [3] [%]	Herbicidal rate (%) Monochoria vaginalis [3] [%]	Herbicidal rate (%) Echinochloa crus-galli (Echinochloa crus-galli [4]) [%]	Herbicidal rate (%) Scirpus juncoides (Scirpus juncoides [5]) [%]	Herbicidal rate (%) Lindernia pyxidaria [6] [%]	Herbicidal rate (%) Monochoria vaginalis [6] [%]	herbicidal rate, Amaranthus viridis (Amaranthus viridis) [%]	herbicidal rate, Chenopodium album (Chenopodium album) [%]	herbicidal rate, Echinochloa crus-galli (Echinochloa crus-galli [7]) [%]	herbicidal rate, southern crabgrass (southern crabgrass) [%]
Cc1c(Cc2ccccc2NS(=O)(=O)C(F)(F)F)c(=O)on1CCc1ccccc1 [Compound 1-216]	90	100	100	100	90	90	100	100	40	0	60	70
Cc1c(Cc2ccccc2NS(=O)(=O)C(F)(F)F)c(=O)on1CCCc1ccccc1 [Compound 1-221]	90	80	70	60	60	40	40	40	50	40	70	50
Cc1c(Cc2ccccc2NS(=O)(=O)C(F)(F)F)c(=O)on1C1CCCc2ccccc21 (stereo not drawn) [Compound 1-224]	100	90	100	100	90	80	60	80	100	90	100	100
Cc1c(Cc2ccccc2NS(=O)(=O)C(F)(F)F)c(=O)on1CC1(C)COC1 [Compound 1-229]	70	90	80	100	70	90	60	90	60	40	40	60
Cc1c(Cc2ccccc2NS(=O)(=O)C(F)(F)F)c(=O)on1CCOc1ccccc1 [Compound 1-237]	90	80	90	80	90	90	60	90	80	40	50	50
Cc1c(Cc2ccccc2NS(=O)(=O)C(F)(F)F)c(=O)on1S(=O)(=O)C(C)C [Compound 1-251]	100	80	90	100	50	90	50	80	80	80	100	80
Cc1c(Cc2ccccc2N(C(=O)c2ccccc2)S(=O)(=O)C(F)(F)F)c(=O)on1C(C)C [Compound 1-472]	90	90	90	60	90	90	80	90	0	50	90	70
CCCOC(=O)N(c1ccccc1Cc1c(C)n(C(C)(C)C)oc1=O)S(=O)(=O)C(F)(F)F [Compound 1-631]	90	90	90	90	90	90	90	90	90	90	90	90
Cc1c(Cc2ccccc2N(C(=O)OC(C)C)S(=O)(=O)C(F)(F)F)c(=O)on1C(C)(C)C [Compound 1-641]	90	90	90	90	90	90	90	90	90	90	90	90
Cc1c(Cc2ccccc2N(C(=O)OCC(C)C)S(=O)(=O)C(F)(F)F)c(=O)on1C(C)C [Compound 1-667]	90	90	90	90	90	90	90	90	80	90	90	80
CCn1oc(=O)c(Cc2ccccc2N(S(=O)(=O)C(F)(F)F)S(=O)(=O)C(F)(F)F)c1C [Compound 1-960]	80	80	70	70	70	70	70	70	0	0	100	80
CCCCn1oc(=O)c(Cc2ccccc2N(S(=O)(=O)C(F)(F)F)S(=O)(=O)C(F)(F)F)c1C [Compound 1-969]	100	90	100	80	100	90	60	90	40	40	90	80

Source: patent US11109593B2, “Isoxazolin-5-one derivative and herbicide containing same as active ingredient” (HOKKO CHEMICAL INDUSTRY CO., LTD., priority 2017, dated 2021)
